Entries after “also recorded” stand apart in the source; their conditions may differ.
Assays:
K562 cells = assay: Terminal restriction fragment (TRF) Southern blot telomere length, K562 cells; format: cell-based, human
Method: (§1) Cell culture: K562 cells (ATCC) were grown in RPMI1 1640 (Gibco) media supplemented with 10% fetal bovine serum. 293T cells (ATCC) were grown in DMEM (Gibco) supplemented with 10% fetal bovine serum, and were subcultured using 0.05% trypsin (Gibco). iPSCs were derived, characterized and cultured as previously described. iPSCs were grown in Essential 8 Media (Life Technologies) supplemented with the ROCK inhibitor Y271632 (Stem Cell Technologies) at 10 μM on plates coated with hES qualitied Matrigel matrix (Corning) and were subcultured using Accutase (Stem Cell Technologies).
(§2) Terminal Restriction Fragment Length Analysis: genomic DNA was isolated from cells using the Invitrogen Purelink Genomic DNA mini kit (Invitrogen). 1-3 μg of gDNA was digested with RsaI and HinfI for 2-3 hrs at 37° C. and loaded onto a 0.6% agarose gel followed by Southern blotting using the Telotaggg Telomere Length Assay Kit (Roche). Quantification was performed using the WALTER webtool.

293T cells [1] = assay: Polar metabolite profiling by LC-MS of dT treated 293T cells; format: cell-based, human
Method: Liquid Chromatography-Mass Spectrometry: extraction of and quantification of polar metabolites was performed as described using HPLC grade methanol (Fisher Scientific). If a given species was detected in multiple ion modes, the mode with the highest average signal in the untreated cells was used for analysis.

[2] = tested on: super-telomerase cells (TERC-null 293T cells transfected with TERT and TERC); assay: Cell cycle analysis by DAPI staining and flow cytometry, super-telomerase cells; format: cell-based, human; settings: 40 μM dT
Method: (§3) Cell cycle analysis by DNA content staining and flow cytometry: Cells were prepared either for flow-FISH staining as described (for experiments in FIG. 5) or by ethanol fixation (for data in FIG. 6, 27), followed by rehydration and counterstaining using DAPI (BD Biosciences) and analysis on an LSR-II or Fortessa analyzer (BD Biosciences) using BD FACSDiva 8.0.2. Cells were gated on FSC/SSC as described in FIG. 6d using FlowJo V10.7.1.

[3] = tested on: iPSCs from a healthy donor; assay: TRF Southern blot telomere length, wildtype iPSCs; format: cell-based, human
Method: as §1, §2

293T cells [4] = assay: Terminal restriction fragment (TRF) Southern blot telomere length, 293T cells; format: cell-based, human
Method: as §1, §2

wild-type iPSCs = assay: Cell cycle analysis by DAPI staining and flow cytometry, iPSCs; format: cell-based, human; settings: 24 hours
Method: as §3

primary fibroblasts = assay: Telomere lengthening from dT with TERT expression in primary fibroblasts; format: cell-based; settings: primary fibroblasts (FIG. 30A)
[5] = tested on: TERC−/− 293T cells stably expressing dmDNK; assay: Telomere DNA content blot in dmDNK expressing cells; format: cell-based, human; settings: TERT and TERC transfected, nucleoside 24-30 hrs, versus eGFP control
Excerpt: Combining thymidine treatment with expression of a nucleoside kinase to improve efficiency of nucleoside uptake and thereby promote telomere lengthening. combining nucleoside treatment with the expression of TK1, or the deoxynucleoside kinase from Drosophila (dmDNK), either of which can be delivered via mRNA. See FIG. 29A-B. TERC-/- 293T cells stably expressing dmDNK or eGFP (control) were transfected with vectors to express […], then cultured in the indicated doses of nucleoside, followed by analysis of telomere DNA content via blotting and detection with a complementary oligonucleotide probe.

293T cells [6] = assay: Cell growth curves by hemocytometry, 293T cells; format: cell-based
Method: Quantification of cell growth was performed using hemocytometry with trypan blue staining to identify dead cells. For growth curves, 50k cells were plated per 12 well or 100k cells were plated per 6 well and cells were passaged when confluent, counted using a hemocytometer, and replated at equal numbers in fresh media.

telomerase = assay: TRAP assay on lysates from 293T cells treated with dT; format: cell-based, human; settings: 293T cells treated with or without 100 μM dT, 3 days
Method: TRAP assay: cell extracts for TRAP assays were made using TRAPeze™1×CHAPS Lysis Buffer (Roche) supplemented with RNASEin (Promega). Standard TRAP reactions (in FIG. 25a) were performed as described, with cell input normalized across samples using the Bio-Rad DC assay. TRAP assays were modified to enable unique dNTP concentrations in telomerase reactions from PCR reactions (FIG. 25) as follows: reactions were assembled with 1×TRAP buffer (20 mM Tris-HCl, pH 8.3; 1.5 mM MgCl2; 63 mM KCl; 0.05% Tween 20; 1 mM EGTA), TS, ACX, TNST, and NT primers as described (see Primers/Oligos below), dNTPs were added at physiologic concentrations (dATP 24 μM, dGTP 5.2 μM, dCTP 29 μM, dTTP 37 μM) unless otherwise mentioned in the figure legend, followed by telomerase extracts. TRAP assays were modified to detect GGAAAG repeats using the following primers: TS GGAAAG, TNST GGAAAG, ACX GGAAAG, and NT (see Primers/Oligos below). After addition of telomerase extracts, reactions were incubated for 30 minutes at 30° C. followed by heat inactivation at 95° C. for 5 minutes. […] Images were quantified for a given lane using ImageJ by measuring the signal of the telomerase repeat sized products divided by the signal of the internal control band for the lane, normalized to the same ratio for the untreated sample(s) in a given experiment. […]

[7] = increasing doses of dT (FIG. 8a)

Cc1cn([C@H]2C[C@H](O)[C@@H](CO)O2)c(=O)[nH]c1=O [dT, 1-[(2R,4S,5R)-4-Hydroxy-5-(hydroxymethyl)oxolan-2-yl]-5-methylpyrimidine-2,4 (1H,3H)-dione]
thymidine doses driving robust telomere length increases (K562 cells; 34 days of culture in low dose thymidine (FIGS. 2L and 2N)): ≥ 5 µM | doses leading to robust telomere elongation in less than 10 days (K562 cells; K562 cells): ≥ 50 µM | telomere length (K562 cells; K562 cells, 100 μM of the indicated deoxynucleoside(s) for 8 days): rapidly and robustly increases telomere length; also recorded: promoted telomere lengthening, as did dT alone | telomere lengthening following dT with dNTPase-deficient SAMHD1 H215A or K312A variants (K562 cells; K562 cells, 10 days): could not restrict telomere lengthening following dT supplementation | telomere lengthening following dT treatment with overexpression of wild-type SAMHD1 (K562 cells; K562 cells, 10 days, compared to EGFP control): reduced telomere lengthening following dT treatment | lowest dT dose giving robust telomere lengthening without growth change (K562 cells; K562 cells, 34 days): ≥ 5 µM | telomere lengthening upon dT treatment in TK1-edited cells (K562 cells; K562 cells, CRISPR/Cas9 TK1 edited, 10 days): complete abrogation of the telomere lengthening | telomere lengthening upon dT treatment in TK2-edited cells (K562 cells; K562 cells, CRISPR/Cas9 TK2 edited, 10 days): no difference in telomere length increases compared to control AAVS1-targeted cells | telomere elongation, increase of base pairs (bp) per day (K562 cells; K562 cells, at 100 μM dT): 204 bp per day | telomere elongation, increase of base pairs (bp) per day (K562 cells; K562 cells, at […] dT): 132 bp per day | telomere lengthening in TYMS-knockout cells (K562 cells; K562 cells, baseline 16 μM dT, plus 100 μM additional dT or 1 mM dU, 10 days): responsive to dT to promote telomere lengthening | dTDP levels (293T cells [1]; 100 μM dT): fourfold | levels of dTTP compared to vehicle (293T cells [1]; 100 μM dT): four-fold | levels of dTMP, dTDP and dTTP (293T cells [1]; 100 μM dT for 24 hours): increases levels of dTMP, dTDP and dTTP | cell cycle progression at the telomere-active dose [2]: below those that significantly impacted cell cycle progression | telomere elongation ([3]; 100 μM dT, three weeks): ~ 2000 bp | telomere elongation ([3]; dT for three weeks): significantly elongated telomeres | doses leading to robust telomere elongation in less than 10 days (293T cells [4]): ≥ 50 µM | telomere lengthening from dT treatment (293T cells [4]; 50 μM dT for eight days, without SAMHD1 knockdown): ~ 470 bp | telomere elongation after withdrawal of dT (293T cells [4]; 100 μM dT withdrawn after 15 days): aborted telomere elongation | telomere length, time-course of dT treatment (293T cells [4]; 100 μM dT, over 33 days): gradually and continually increased telomere length | telomere length (293T cells [4]; 100 μM of the indicated deoxynucleoside(s) for 9 days): rapidly and robustly increases telomere length; also recorded: promoted telomere lengthening, as did dT alone; also recorded: necessary and sufficient for telomere lengthening | telomere length (293T cells [4]; 20 or 40 μM dT, 10 days): minimal telomere length changes | telomere length (293T cells [4]; 20 or 40 μM dT, 34 days): robust telomere lengthening | persistence of long telomere length after dT withdrawal (293T cells [4]; 100 micromolar thymidine for 15 days then removed): more than two weeks | telomere lengthening following dT with dNTPase-deficient SAMHD1 H215A or K312A variants (293T cells [4]; 10 days): could not restrict telomere lengthening following dT supplementation | telomere lengthening following dT treatment with overexpression of wild-type SAMHD1 (293T cells [4]; 10 days, compared to EGFP control): reduced telomere lengthening following dT treatment | telomere elongation with dT from different manufacturers (293T cells [4]; 10 days, three manufacturers, each of >98% purity): resulted in telomere elongation similarly | telomere lengthening upon dT treatment in TK1-edited cells (293T cells [4]; CRISPR/Cas9 TK1 edited): complete abrogation of the telomere lengthening; also recorded: prevented telomere lengthening following dT treatment | telomere lengthening upon dT treatment in TK2-edited cells (293T cells [4]; CRISPR/Cas9 TK2 edited): no difference in telomere length increases compared to control AAVS1-targeted cells; also recorded: TK2 knockout did not | telomere lengthening, combined SAMHD1 knockdown and dT treatment (293T cells [4]; SAMHD1 targeting shRNA, 50 μM dT for eight days): ~ 800 bp | telomere elongation, increase of base pairs (bp) per day (293T cells [4]; at 100 μM dT): 96 bp per day | telomere elongation, increase of base pairs (bp) per day (293T cells [4]; at […] dT): 60 bp per day | telomere lengthening in TYMS-knockout cells (293T cells [4]; baseline 16 μM dT, plus 100 μM additional dT or 1 mM dU, 10 days): responsive to dT to promote telomere lengthening | dT doses with minimal effects on cell cycle progression (wild-type iPSCs): ≤ 50 µM | telomere lengthening from dT with expression of TERT (primary fibroblasts): expression of TERT can increase telomere lengthening from dT | telomere lengthening with expression of a nucleoside kinase (dmDNK) [5]: Enhanced telomere lengthening from the combination of expressing a nucleoside kinase with dT treatment | cellular growth (293T cells [6]; 20 or 40 μM dT, 34 days): undetectable changes in cellular growth curves; also recorded: undetectable impact on cellular growth | dose at which inhibition of growth was detected (293T cells [6]; [7]): ≥ 50 µM | doses at which growth was minimally impacted (293T cells [6]; [7]): below 100 μM | telomerase activity in lysates (abundance of active telomerase enzymes) (telomerase): no difference in telomerase activity

Reference: patent US20260248833A1, “PYRIMIDINE NUCLEOSIDE TREATMENTS” (The Children`s Medical Center Corporation, priority 2022, published 2026)
